Source: patent US20230167122A1, “PESTICIDALLY ACTIVE HETEROCYCLIC DERIVATIVES WITH SULFUR CONTAINING SUBSTITUENTS” (SYNGENTA CROP PROTECTION AG, priority 2020, published 2023)

How the values were obtained:
Format in all cases: in vivo
[1] = test system: Bemisia tabaci (Cotton White Fly); assay: Example B1: Activity against Bemisia tabaci (cotton white fly), sprayed cotton leaf discs; conditions: foliar, 144 h, application rate of 200 ppm, adult white flies on cotton leaf discs, 6 days after incubation
Procedure: Example B1: Activity Against Bemisia tabaci (Cotton White Fly)
Cotton leaf discs were placed on agar in 24-well microtiter plates and sprayed with aqueous test solutions prepared from 10′000 ppm DMSO stock solutions. After drying the leaf discs were infested with adult white flies. The samples were checked for mortality 6 days after incubation.

[2] = test system: Spodoptera littoralis (Egyptian Cotton Leaf Worm); assay: Example B9: Activity against Spodoptera littoralis (Egyptian cotton leaf worm), sprayed cotton leaf discs; conditions: foliar, 72 h, application rate of 200 ppm, L1 larvae on cotton leaf discs, 3 days after infestation
Procedure: Example B9: Activity Against Spodoptera littoralis (Egyptian Cotton Leaf Worm)
Cotton leaf discs were placed onto agar in 24-well microtiter plates and sprayed with aqueous test solutions prepared from 10′000 ppm DMSO stock solutions. After drying the leaf discs were infested with five L1 larvae. The samples were assessed for mortality, anti-feeding effect, and growth inhibition in comparison to untreated samples 3 days after infestation. Control of Spodoptera littoralis by a test sample is given when at least one of the categories mortality, anti-feedant effect, and growth inhibition is higher than the untreated sample.

[3] = test system: Diabrotica balteata (Corn Root Worm); assay: Example B2: Activity against Diabrotica balteata (corn root worm), sprayed maize sprouts; conditions: 96 h, application rate of 200 ppm, L2 larvae on maize sprouts, 4 days after infestation, read-out: effect in at least one of the two categories (mortality or growth inhibition)
Procedure: Example B2: Activity Against Diabrotica balteata (Corn Root Worm)
Maize sprouts placed onto an agar layer in 24-well microtiter plates were treated with aqueous test solutions prepared from 10′000 ppm DMSO stock solutions by spraying. After drying, the plates were infested with L2 larvae (6 to 10 per well). The samples were assessed for mortality and growth inhibition in comparison to untreated samples 4 days after infestation.

[4] = test system: Plutella xylostella (Diamond Back Moth); assay: Example B5: Activity against Plutella xylostella (diamond back moth), eggs, artificial diet; conditions: 192 h, application rate of 200 ppm, 8 days after infestation, read-out: effect in at least one of the two categories (mortality or growth inhibition)
Procedure: Example B5: Activity Against Plutella xylostella (Diamond Back Moth)
24-well microtiter plates with artificial diet were treated with aqueous test solutions prepared from 10′000 ppm DMSO stock solutions by pipetting. After drying, Plutella eggs were pipetted through a plastic stencil onto a gel blotting paper and the plate was closed with it. The samples were assessed for mortality and growth inhibition in comparison to untreated samples 8 days after infestation.

[5] = test system: Frankliniella occidentalis (Western Flower Thrips); assay: Example B4: Activity against Frankliniella occidentalis (western flower thrips), sprayed sunflower leaf discs; conditions: foliar, 168 h, application rate of 200 ppm, population of mixed ages on sunflower leaf discs, 7 days after infestation
Procedure: Example B4: Activity Against Frankliniella occidentalis (Western Flower Thrips)
Sunflower leaf discs were placed on agar in 24-well microtiter plates and sprayed with aqueous test solutions prepared from […] stock solutions. After drying the leaf discs were infested with a Frankliniella population of mixed ages. The samples were assessed for mortality 7 days after infestation.

[6] = test system: Euschistus heros (Neotropical Brown Stink Bug); assay: Example B3: Activity against Euschistus heros (neotropical brown stink bug), sprayed soybean leaf; conditions: 120 h, application rate of 200 ppm, N-2 nymphs on soybean leaf, 5 days after infestation, read-out: effect in at least one of the two categories (mortality or growth inhibition)
Procedure: Example B3: Activity Against Euschistus heros (Neotropical Brown Stink Bug)
Soybean leaf on agar in 24-well microtiter plates were sprayed with aqueous test solutions prepared from 10′000 ppm DMSO stock solutions. After drying the leaf were infested with N-2 nymphs. The samples were assessed for mortality and growth inhibition in comparison to untreated samples 5 days after infestation.

[7] = test system: Myzus persicae (Green Peach Aphid); assay: Example B6: Activity against Myzus persicae (green peach aphid), sprayed sunflower leaf discs; conditions: foliar, 144 h, application rate of 200 ppm, aphid population of mixed ages on sunflower leaf discs, 6 days after infestation
Procedure: Example B6: Activity Against Myzus persicae (Green Peach Aphid)
Sunflower leaf discs were placed on agar in a 24-well microtiter plate and sprayed with aqueous test solutions prepared from 10′000 ppm DMSO stock solutions. After drying, the leaf discs were infested with an aphid population of mixed ages. The samples were assessed for mortality 6 days after infestation.

[8] = test system: Plutella xylostella (Diamond Back Moth); assay: Example B8: Activity against Plutella xylostella (diamond back moth), L2 larvae, artificial diet; conditions: 120 h, application rate of 200 ppm, 5 days after infestation, read-out: effect in at least one of the two categories (mortality or growth inhibition)
Procedure: Example B8: Activity Against Plutella xylostella (Diamond Back Moth)
24-well microtiter plates with artificial diet were treated with aqueous test solutions prepared from 10′000 ppm DMSO stock solutions by pipetting. After drying, the plates were infested with L2 larvae (10 to 15 per well). The samples were assessed for mortality and growth inhibition in comparison to untreated samples 5 days after infestation.

[9] = test system: Tetranychus urticae (Two-Spotted Spider Mite); assay: Example B10: Activity against Tetranychus urticae (two-spotted spider mite), sprayed bean leaf discs; conditions: foliar, 192 h, application rate of 200 ppm, mixed population (mobile stages) on bean leaf discs, 8 days after infestation
Procedure: Example B10: Activity Against Tetranychus urticae (Two-Spotted Spider Mite)
Bean leaf discs on agar in 24-well microtiter plates were sprayed with aqueous test solutions prepared from 10′000 ppm DMSO stock solutions. After drying the leaf discs were infested with a mite population of mixed ages. The samples were assessed for mortality on mixed population (mobile stages) 8 days after infestation.

[10] = test system: Nilaparvata lugens (Brown Plant Hopper); assay: Example B11: Activity against Nilaparvata lugens (brown plant hopper), larvicide, feeding/contact; conditions: 168 h, application rate of 50 ppm, N3 nymphs on sprayed rice plants, 7 days after the treatment
Procedure: Example B11: Activity Against Nilaparvata lugens (Brown Plant Hopper) Larvicide, Feeding/Contact
Rice plants were treated with the diluted test solutions in a spray chamber. After drying plants were infested with ˜20 N3 nymphs. 7 days after the treatment samples were assessed for mortality and growth regulation.

[11] = test system: Nilaparvata lugens (Brown Plant Hopper); assay: Example B12: Activity against Nilaparvata lugens (brown plant hopper), larvicide, systemic into water; conditions: 168 h, application rate of 12.5 ppm, systemic into nutritive solution, rice plants, N3 nymphs, 7 days after infestation
Procedure: Example B12: Activity Against Nilaparvata lugens (Brown Plant Hopper) Larvicide, Systemic into Water
Rice plants cultivated in a nutritive solution were treated with the diluted test solutions into nourishing cultivation system. 1 day after application plants were infested with ˜20 N3 nymphs. 7 days after infestation samples were assessed for mortality and growth regulation.

CCS(=O)(=O)c1cc(OC(C)(C)C#N)cnc1-c1nc2cc(C(F)(F)F)cnc2n1C [Compound P3, 2-[[5-ethylsulfonyl-6-[3-methyl-6-(trifluoromethyl)imidazo[4,5-b]pyridin-2-yl]-3-pyridyl]oxy]-2-methyl-propanenitrile]
≥ 80%: mortality at 200 ppm [1] | percent control (mortality, anti-feedant effect or growth inhibition) at 200 ppm [2] | percent effect (mortality or growth inhibition) at 200 ppm [3] | percent effect (mortality or growth inhibition) at 200 ppm [4] | mortality at 200 ppm [5] | percent effect (mortality or growth inhibition) at 200 ppm [6] | mortality at 200 ppm [7]

CCn1c(C(F)(F)F)cc2nc(-c3ncc(OC(C)(C)C#N)cc3S(=O)(=O)CC)n(C)c2c1=O [Compound P6, 2-[[6-[5-ethyl-3-methyl-4-oxo-6-(trifluoromethyl)imidazo[4,5-c]pyridin-2-yl]-5-ethylsulfonyl-3-pyridyl]oxy]-2-methyl-propanenitrile]
≥ 80%: mortality at 200 ppm [1] | percent control (mortality, anti-feedant effect or growth inhibition) at 200 ppm [2] | percent effect (mortality or growth inhibition) at 200 ppm [3] | percent effect (mortality or growth inhibition) at 200 ppm [8] | mortality at 200 ppm [5] | percent effect (mortality or growth inhibition) at 200 ppm [6] | mortality at 200 ppm [7]

CCS(=O)(=O)c1cc(OC(C)(C)C#N)cnc1-c1nc2cc(C(F)(F)F)n(C3CC3)c(=O)c2n1C [Compound P7, 2-[[6-[5-cyclopropyl-3-methyl-4-oxo-6-(trifluoromethyl)imidazo[4,5-c]pyridin-2-yl]-5-ethylsulfonyl-3-pyridyl]oxy]-2-methyl-propanenitrile]
≥ 80%: percent control (mortality, anti-feedant effect or growth inhibition) at 200 ppm [2] | percent effect (mortality or growth inhibition) at 200 ppm [3] | percent effect (mortality or growth inhibition) at 200 ppm [8] | mortality at 200 ppm [5] | percent effect (mortality or growth inhibition) at 200 ppm [6]

CCS(=O)(=O)c1cc(OC(C)(C)C#N)cnc1-c1cn2ccc(C(F)(F)F)cc2n1 [Compound P8, 2-[[5-ethylsulfonyl-6-[7-(trifluoromethyl)imidazo[1,2-a]pyridin-2-yl]-3-pyridyl]oxy]-2-methyl-propanenitrile]
≥ 80%: percent control (mortality, anti-feedant effect or growth inhibition) at 200 ppm [2] | percent effect (mortality or growth inhibition) at 200 ppm [3] | mortality at 200 ppm [9] | percent effect (mortality or growth inhibition) at 200 ppm [8] | mortality at 200 ppm [5] | percent effect (mortality or growth inhibition) at 200 ppm [6] | mortality at 200 ppm [7]

CCS(=O)(=O)c1cc(OC(C)(C)C#N)cnc1-c1cn2ncc(C(F)(F)F)cc2n1 [Compound P9, 2-[[5-ethylsulfonyl-6-[7-(trifluoromethyl)imidazo[1,2-b]pyridazin-2-yl]-3-pyridyl]oxy]-2-methyl-propanenitrile]
≥ 80%: mortality at 200 ppm [1] | percent control (mortality, anti-feedant effect or growth inhibition) at 200 ppm [2] | percent effect (mortality or growth inhibition) at 200 ppm [3] | mortality at 50 ppm [10] | mortality at 12.5 ppm [11] | percent effect (mortality or growth inhibition) at 200 ppm [8] | mortality at 200 ppm [5] | mortality at 200 ppm [7]

CCS(=O)(=O)c1cc(OC(C)(C)C#N)ccc1-n1cc2cnc(C(F)(F)F)cc2n1 [Compound P10, 2-[3-ethylsulfonyl-4-[6-(trifluoromethyl)pyrazolo[4,3-c]pyridin-2-yl]phenoxy]-2-methyl-propanenitrile]
≥ 80%: mortality at 200 ppm [1] | percent control (mortality, anti-feedant effect or growth inhibition) at 200 ppm [2] | percent effect (mortality or growth inhibition) at 200 ppm [3] | mortality at 200 ppm [9] | mortality at 50 ppm [10] | mortality at 12.5 ppm [11] | percent effect (mortality or growth inhibition) at 200 ppm [8] | mortality at 200 ppm [5] | percent effect (mortality or growth inhibition) at 200 ppm [6] | mortality at 200 ppm [7]

CCS(=O)(=O)c1cc(OC(C)(C)C#N)ccc1-c1nc2cc(C(F)(F)F)nnc2n1C [Compound P12, 2-[3-ethylsulfonyl-4-[7-methyl-3-(trifluoromethyl)imidazo[4,5-c]pyridazin-6-yl]phenoxy]-2-methyl-propanenitrile]
≥ 80%: mortality at 200 ppm [1] | percent control (mortality, anti-feedant effect or growth inhibition) at 200 ppm [2] | percent effect (mortality or growth inhibition) at 200 ppm [3] | percent effect (mortality or growth inhibition) at 200 ppm [8] | mortality at 200 ppm [5] | percent effect (mortality or growth inhibition) at 200 ppm [6] | mortality at 200 ppm [7]

CCS(=O)(=O)c1cc(OC(C)(C)C#N)cnc1-c1nc2cc(SC(F)(F)F)ccc2n1C [Compound P13, 2-[[5-ethylsulfonyl-6-[1-methyl-5-(trifluoromethylsulfanyl)benzimidazol-2-yl]-3-pyridyl]oxy]-2-methyl-propanenitrile]
≥ 80%: mortality at 200 ppm [1] | percent control (mortality, anti-feedant effect or growth inhibition) at 200 ppm [2] | percent effect (mortality or growth inhibition) at 200 ppm [3] | percent effect (mortality or growth inhibition) at 200 ppm [4] | mortality at 200 ppm [5] | percent effect (mortality or growth inhibition) at 200 ppm [6] | mortality at 200 ppm [7]

CCS(=O)(=O)c1cc(OC(C)(C)C#N)cnc1-c1nc2cc(S(=O)(=O)C(F)(F)F)ccc2n1C [Compound P14, 2-[[5-ethylsulfonyl-6-[1-methyl-5-(trifluoromethylsulfonyl)benzimidazol-2-yl]-3-pyridyl]oxy]-2-methyl-propanenitrile]
≥ 80%: mortality at 200 ppm [1] | percent control (mortality, anti-feedant effect or growth inhibition) at 200 ppm [2] | percent effect (mortality or growth inhibition) at 200 ppm [3] | percent effect (mortality or growth inhibition) at 200 ppm [4] | mortality at 200 ppm [5] | percent effect (mortality or growth inhibition) at 200 ppm [6] | mortality at 200 ppm [7]
